Laboratory results: PMC12677652, “Procyanidin B3 and Its Derivatives Alleviate Neuronal Injury by Targeting G3BP1 for Ischemic Stroke Therapy” (Advanced Science, 2025)

How the values were obtained:
OGD/R‐treated HT22 cells = test: Neuroprotective effect on OGD/R-treated HT22 cells, cell viability by CCK-8; assay type: cell-based; conditions: 6 h OGD; for viability at 2 µM / viability at 20 µM: Mus musculus, HT-22, 24 h reoxygenation with compound, relative to control cells, mean ± S.D., n = 3
Experimental: (§1) HT22 cells were washed with phosphate buffered saline (PBS), then DMEM sugar‐free medium (Gibco, USA) was added and placed in the anaerobic incubator of 5% CO2, 1% O2, and 37 °C for 6 h. PB3 or other compounds were previously dissolved in DMEM/F‐12 with 10% FBS and 1% penicillin/streptomycin. After undergoing OGD for 6 h, the medium was replaced by DMEM/F‐12 with 10% FBS and 1% penicillin/streptomycin containing PB3 or other compounds and kept in a humidified 5% CO2, 37 °C incubator for 24 h.
The CCK‐8 assay kit (Yeasen, China) was used to assess cell viability. All operations were performed following instructions. HT22 cells were seeded into the 96‐well plate (3000 cells per well). The cells were cultured at 37 °C with 5% CO2 in a humidified incubator overnight. After 6 h of OGD, the medium was replaced by DMEM/F‐12 with 10% FBS and 1% penicillin/streptomycin containing PB3 or other compounds and kept in a humidified 5% CO2, 37 °C incubator for 24 h. Then, the cells were washed with PBS, the medium was replaced with DMEM/F‐12 with 10% FBS and 1% penicillin/streptomycin containing 10% CCK‐8 solution, and incubated for 1 h at 37 °C. The absorbance was assessed by a Synergy H1 multi‐mode microplate reader (BioTek, USA) at 450 nm.

[1] = target: T1, recombinant human G3BP1 protein (Homo sapiens, UniProt Q13283); test: SPR analysis of binding to G3BP1 (Biacore T200, CM5 chip); conditions: 1:1 binding model, running buffer PBS
T1 construct: purchased Hubei Ipodix Biotechnology Co., Ltd. (China)
Experimental: The SPR analyses were carried out using a Biacore T200 instrument (GE Healthcare, USA) with the Series Sensor Chip CM5 (GE Healthcare, USA). The recombinant human G3BP1 protein was purchased from Hubei Ipodix Biotechnology Co., Ltd. (China). The protein was immobilized on the chip using an amine coupling kit (GE Healthcare, USA). The blank channel served as the negative control. The binding experiments were performed at a flow rate of 30 µL min^−1. For the measurement of the kinetic parameters of PB3 and 6c, gradient dilutions of PB3 and 6c were injected into the immobilized protein. The running buffer was PBS. All biosensor data were processed and analyzed with Biacore T200 Evaluation software version 3.2 (GE Healthcare, USA) and fitted by a 1:1 binding model.

[2] = system: Primary rat cortical neurons; test: Cytotoxicity (50% cytotoxic concentration) by CCK-8 assay; assay type: cell-based; conditions: 24 h exposure
Experimental: Additionally, we investigated the effects of PB3, 6c, and EDA on apoptosis at a concentration of 50 µM. […] Therefore, the improvement in target accessibility could be one of the main reasons for the enhanced activity of 6c. The binding mode of 6c and the NTF2L domain of G3BP1 was analyzed by molecular docking (Figure S10B, Supporting Information). […] Cytotoxicities of 1 and 6c were determined by the detection of 50% cytotoxic concentration using the CCK‐8 assay. Primary rat cortical neurons ^[ [10] ^] were exposed to 200 µM gradient concentrations of compounds for 24 h.

[3] = system: HT22 cells under OGD/R injury; test: Apoptosis level of HT22 cells under OGD/R (TUNEL staining and immunoblotting); assay type: cell-based
Experimental: as §1
Apoptosis level was evaluated by TUNEL staining and flow cytometry. For TUNEL staining, HT22 cells were treated with 4% paraformaldehyde for 15 min. Then the fixed brain tissue slices and HT22 cells were permeabilized for 5 min using 1% Triton X‐100 (Sigma‐Aldrich, USA) dissolved in PBS. TUNEL staining was executed by following the instructions, using a one‐step TUNEL apoptosis assay kit (Meilunbio, China). Red fluorescence was utilized to identify apoptotic cells, while 4′, 6‐diamidino‐2‐phenylindole (DAPI) was used to counterstain the nuclei. The fluorescence microscope (Carl Zeiss, Germany) was used to obtain images. For flow cytometry, apoptotic cells were determined with the Annexin V‐Alexa Fluor 488/PI apoptosis detection kit (Yeasen, China) by following the instructions. EDTA‐free trypsin (Gibco, USA) was added to HT22 cells (2.5 × 10^5 cells). The cells were collected and washed with pre‐cooling PBS 2 times, then suspended in 250 µL 1× binding buffer. 100 µL cell suspension was dyed with 5 µL Annexin V‐Alexa Fluor 488 and 10 µL PI and plunged into darkness at room temperature for 15 min. Then the cell suspension was mixed with 400 µL of 1× binding buffer. Cell apoptosis was immediately determined by Cytek Aurora (Cytek Biosciences, USA).
Cells and tissues were homogenized in RIPA buffer (Beyotime, China) containing protease inhibitors (Biovision, USA) on ice for 30 min. After centrifugation (13000 r min^−1, 4 °C) for 10 min, the resulting supernatant was collected. The protein concentrations were determined by a BCA protein assay kit (Thermo Scientific, USA). After separating a 10% sodium dodecyl sulfate (SDS)‐polyacrylamide gel, protein on the gel was then transferred onto nitrocellulose membranes (Merck, USA), which were blocked with 5% bovine serum albumin for 1 h to prevent non‐specific binding. Then, the anti‐caspase 3 antibody (catalog no. 9662, Cell Signaling Technology, USA), anti‐Bcl‐2 antibody (catalog no. GTX100064, GeneTex, USA), anti‐G3BP1 antibody (catalog no. 66486‐1‐Ig, Proteintech, China), anti‐β‐tubulin antibody (catalog no. 66240‐1‐Ig, Proteintech, China), and anti‐β‐actin antibody (catalog no. 66009‐1‐Ig, Proteintech, China) were used for treating the membrane overnight at 4 °C. Bound antibodies were detected with the species‐appropriate horseradish peroxidase‐labeled secondary antibody (Jackson ImmunoResearch, USA) using ECL reagents (ShareBio, China). Protein‐specific signals were detected using a Bio‐Rad Imager (Bio‐Rad, USA), and the bands were quantified by densitometric analysis software (ImageJ). β‐tubulin or β‐actin was used as a loading control.

SG in HT22 cells = test: Immunofluorescence staining of G3BP1 to detect SG level in HT22 cells under OGD/R; assay type: cell-based; conditions: for ratio of SG‐positive cells: 100 µM; for SG levels: after 6 h of OGD, 24 h treatment
Experimental: Immunofluorescence analysis of the stress granule (SG) core component G3BP1 was utilized to investigate the SG formation in HT22 cells and the cortex. HT22 cells were treated with 4% paraformaldehyde for 15 min. Then the fixed brain tissue slices and HT22 cells were permeabilized for 5 min using 1% Triton X‐100 (Sigma‐Aldrich, USA) dissolved in PBS and blocked with a PBS solution containing 10% goat serum for 1 h, followed by incubation with anti‐G3BP1 antibody (catalog no. 66486‐1‐Ig, Proteintech, China) at 4 °C overnight. After being washed with PBS 3 times for 5 min each, samples were incubated with secondary antibody (Alexa Fluor 568 Goat anti‐mouse IgG, Invitrogen, USA) in the dark for 2 h at room temperature. The nucleus was stained with DAPI. Fluorescent pictures were obtained with a fluorescence microscope (Carl Zeiss, Germany).

[4] = 50 and 100 µM, compared with the model group
[5] = 50 µM, compared with the model group

T1 sequence (Q13283 whole entry): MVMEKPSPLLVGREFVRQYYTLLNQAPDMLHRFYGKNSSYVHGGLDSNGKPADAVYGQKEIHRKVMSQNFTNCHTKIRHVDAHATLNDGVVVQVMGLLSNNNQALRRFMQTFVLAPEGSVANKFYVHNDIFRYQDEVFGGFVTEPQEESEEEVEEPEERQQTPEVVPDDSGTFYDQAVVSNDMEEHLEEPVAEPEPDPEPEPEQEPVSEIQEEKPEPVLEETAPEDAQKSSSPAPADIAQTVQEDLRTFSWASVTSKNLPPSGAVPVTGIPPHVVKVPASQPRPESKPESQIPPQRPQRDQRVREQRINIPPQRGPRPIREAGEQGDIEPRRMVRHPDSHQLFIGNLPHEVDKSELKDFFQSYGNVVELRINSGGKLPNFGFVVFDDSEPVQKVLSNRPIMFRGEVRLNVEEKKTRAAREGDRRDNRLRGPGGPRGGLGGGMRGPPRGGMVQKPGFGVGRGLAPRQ

Question: How did the viability at 2 µM (OGD/R‐treated HT22 cells) turn out when `Oc1cc(O)c2c(c1)O[C@H](c1ccc(O)c(O)c1)[C@@H](O)[C@@H]2c1c(O)cc(O)c2c1O[C@H](c1ccc(O)c(O)c1)[C@@H](O)C2` [Compound 1, procyanidin B3] was run?
Answer: 63.9 ± 3.36%

Question: And the viability at 20 µM (OGD/R‐treated HT22 cells)?
Answer: 70.9 ± 6.71%

Question: What about the cell viability rate (OGD/R‐treated HT22 cells; PB3 at 20 to 400 µM, 24 h treatment) of the same molecule?
Answer: significantly improve cell viability rate

Question: And the Kd [1]?
Answer: 44 nM

Question: And the 50% cytotoxic concentration [2]?
Answer: over 200 µM

Question: What about the “expression of Bcl‐2” value [3, 4] of the same molecule?
Answer: significantly increased

Question: And the “expression of cleaved caspase‐3” value [3, 4]?
Answer: significantly decreased

Question: What about the “rate of TUNEL‐positive cells” value ([3]; HT22, OGD/R, different concentrations) of the same molecule?
Answer: dose‐dependently reduced

Question: And the “ratio of SG‐positive cells” value (SG in HT22 cells; 1 h after administration)?
Answer: did not change significantly

Question: What about the “ratio of SG‐positive cells” value (SG in HT22 cells; after 24 h of reoxygenation) of the same molecule?
Answer: significantly increased

Question: And the SG levels (SG in HT22 cells)?
Answer: enhance SG levels in a dose‐dependent manner

Question: Which viability at 2 µM (OGD/R‐treated HT22 cells) does the source give for `CC(C)c1c(O)cc(O)c2c1O[C@H](c1ccc(O)c(O)c1)[C@@H](O)[C@@H]2c1c(O)cc(O)c2c1O[C@H](c1ccc(O)c(O)c1)[C@@H](O)C2` [Compound 6c, 8‐Isopropyl‐(+)‐Catechin‐(4α,8)‐(+)‐Catechin] here?
Answer: 66 ± 1.97%

Question: What about the viability at 20 µM (OGD/R‐treated HT22 cells) of the same molecule?
Answer: 83.6 ± 4.34%

Question: What about the Kd [1] of the same molecule?
Answer: 58 nM

Question: What about the 50% cytotoxic concentration [2] of the same molecule?
Answer: over 200 µM

Question: And the “expression of Bcl‐2” value [3, 5]?
Answer: increase the expression of Bcl‐2

Question: And the “expression of cleaved caspase‐3” value [3, 5]?
Answer: decrease the expression of cleaved caspase‐3

Question: What about the “rate of TUNEL‐positive cells” value [3, 5] of the same molecule?
Answer: reduce the rate of TUNEL‐positive cells

Question: And the SG levels (SG in HT22 cells)?
Answer: mediate SG upregulation
